# Several values for one entry are separate records, joined by “and”; a condition that tells them apart may be missing. Equal values may be shown once.
# Assays:
# [1] = test system: caspase-9; assay: Caspase-9 expression assay (quantitative real-time PCR); type: cell-based, human; conditions: HepG2, 1.13 µM, 24 h; control = 1
# Method: The gene expression fold change of caspase-3 and -9 in the HepG2 cells treated with 1.13 µM of compound 17a for 24 h was determined using quantitative real-time PCR analysis.
# The expression of caspase-3 and -9 in the liver HepG2 cells treated with 1.13 μM of 17a was determined using quantitative real-time PCR analysis, as presented in the Supplementary Materials.
# Pharmaceuticals 2022, 15, x FOR PEER REVIEW 3 of 22
# Figure S1. Simple linear regression for the correlation between cytotoxicity against HepG2 cell line […]
# Figure S2. Simple linear regression for the correlation between cytotoxicity against MCF‐7 cell line […]
# 4.2.3. Cell cycle analysis
# To determine the role of the synthesized compounds in cell cycle distribution, cell cycle analysis was performed using propidium iodide (PI) staining and flow cytometry analysis for compound 17a. […] The stained cells were measured using a BD FACSCalibur™ Flow Cytometer, and the data were analyzed using Flowing software (version 2.5.1, Turku Centre for Biotech‐ […]
# Flow cytometry cell apoptosis analysis was used to investigate the apoptotic effect of the synthesized compounds. […] The stained cells were measured using a BD FACSCalibur™ Flow Cytometer and analyzed using Flowing software. […]
# The expression of BAX and Bcl‐2 proteins were determined using Western blot anal‐ ysis. […]
# [2] = molecular target: VEGFR-2 (Homo sapiens, UniProt P35968); assay: In vitro VEGFR-2 kinase inhibitory assay (VEGFR2 (KDR) Kinase Assay Kit)
# Chain of VEGFR-2 (P35968 20-1356): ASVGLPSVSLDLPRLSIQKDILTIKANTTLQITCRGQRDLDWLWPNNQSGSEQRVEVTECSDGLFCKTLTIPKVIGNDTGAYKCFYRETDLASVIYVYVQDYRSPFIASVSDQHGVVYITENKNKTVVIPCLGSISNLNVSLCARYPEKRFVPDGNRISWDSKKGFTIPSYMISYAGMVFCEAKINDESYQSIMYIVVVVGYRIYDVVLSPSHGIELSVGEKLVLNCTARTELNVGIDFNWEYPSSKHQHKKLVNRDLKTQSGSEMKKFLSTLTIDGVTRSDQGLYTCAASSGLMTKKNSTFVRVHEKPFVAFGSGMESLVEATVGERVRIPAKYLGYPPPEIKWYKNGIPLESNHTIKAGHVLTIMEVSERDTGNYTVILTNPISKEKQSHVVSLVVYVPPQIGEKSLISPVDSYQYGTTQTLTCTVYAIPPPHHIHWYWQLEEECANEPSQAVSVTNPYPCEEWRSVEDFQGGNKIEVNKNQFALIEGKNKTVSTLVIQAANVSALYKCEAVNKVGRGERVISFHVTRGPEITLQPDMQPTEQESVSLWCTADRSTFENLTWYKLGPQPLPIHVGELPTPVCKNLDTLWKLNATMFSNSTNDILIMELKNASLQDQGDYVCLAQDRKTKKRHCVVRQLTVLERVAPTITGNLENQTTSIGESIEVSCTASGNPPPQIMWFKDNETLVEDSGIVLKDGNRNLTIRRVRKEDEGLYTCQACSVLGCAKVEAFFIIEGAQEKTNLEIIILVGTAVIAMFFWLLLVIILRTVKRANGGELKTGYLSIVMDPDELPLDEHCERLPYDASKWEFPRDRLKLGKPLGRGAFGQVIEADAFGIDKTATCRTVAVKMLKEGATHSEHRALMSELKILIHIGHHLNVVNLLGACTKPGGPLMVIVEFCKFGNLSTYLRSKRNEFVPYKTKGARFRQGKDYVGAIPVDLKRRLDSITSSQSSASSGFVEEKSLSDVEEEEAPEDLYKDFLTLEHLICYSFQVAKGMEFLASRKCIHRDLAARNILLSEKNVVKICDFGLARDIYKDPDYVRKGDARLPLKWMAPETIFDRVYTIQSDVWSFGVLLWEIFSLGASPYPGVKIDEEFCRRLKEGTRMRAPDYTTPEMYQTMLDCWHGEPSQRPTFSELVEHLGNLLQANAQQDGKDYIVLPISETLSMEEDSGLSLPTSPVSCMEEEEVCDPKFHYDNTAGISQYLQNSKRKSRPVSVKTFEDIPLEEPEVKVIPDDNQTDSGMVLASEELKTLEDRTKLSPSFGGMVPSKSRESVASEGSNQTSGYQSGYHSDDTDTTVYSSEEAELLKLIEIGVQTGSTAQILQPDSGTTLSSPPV
# Method: In vitro VEGFR‐2 kinase inhibitory assay
# for their inhibitory activity against VEGFR‐2. Human BPS bioscience® VEGFR2 (KDR) Ki‐ nase Assay Kit (Enzyme‐Linked Immunosorbent Assay) was utilized in this test. The lu‐ minescent signal from the assay is correlated with the amount of ATP present and is in‐ versely correlated with the amount of kinase activity. The compounds were diluted to 100 μM in 10% DMSO and 5 ml of the diluted solution was added to a 50 ml reaction so that the final concentration of DMSO was 1% in all of reactions. All of the enzymatic reactions were conducted at 30 °C for 40 min. The 50 μl reaction mixture contains 40 μM Tris, pH 7.4, 10 μM MgCl2, 0.1 mg/ml BSA, 0.2 mg/ml Poly (Glu, Tyr) substrate, 10 μM ATP, and VEGFR‐2. After the enzymatic reaction, 50 ml of Kinase‐GloPlus Luminescence kinase as‐ say solution (Promega) was added to each reaction and the plate was incubated for 5 min at room temperature. Luminescence signal was measured using a BioTek Synergy 2 mi‐ croplate reader. The protein kinase assays used to determine IC50 values were performed using a ADP‐GloTM assay kit from Promega, which measures the generation of ADP by the protein kinase. Generation of ADP by the protein kinase reaction leads to an increase in luminescence signal in the presence of the ADP‐GloTM assay kit. The assay was started by incubating the reaction mixture in a 96‐well plate at 30 °C for 30 min. After the 30 mi n incubation period, the assay was terminated by the addition of 25 ml of ADP‐GloTM Re‐ agent (Promega). The 96‐well plate was shaken and then incubated for 40 min at ambient temperature; 50 ml of Kinase detection reagent was added, the 96‐well reaction plate wa s then read using the ADP‐Glo Luminescences Protocol on a GloMax plate reader (Promega: Catalog #E7031). The blank control was set up which included all the assay components, except the addition of appropriate substrates (replaced with equal volume of kinase assay buffer). The corrected activity for each protein kinase target was deter‐ mined by removing the blank control value. IC50 determination for inhibitor against VEGFR‐2 was estimated by generating a graph of log inhibitor vs normalized response with variables.
smiles,measurement,setting,value
"O=C1Nc2ccccc2C1=Nc1ccc(C(=O)NNC(=S)Nc2ccccc2)cc1 [Compound 17a, 2-(4-((2-Oxoindolin-3-ylidene)amino)benzoyl)-N-phenylhydrazinecarbothioamide]",Gene Expression Fold Change (Normalized to β-Actin) Caspases-9,[1],3.7 fold and 3.703 fold
same,IC50,[2],78 ± 3 nM
same,"fold more potent than sunitinib, VEGFR-2 inhibition",[2]; ratio of IC50 to sunitinib,1.78 fold
